# Experimental data reported in US20170190671A1, “BIS(ARYL)CATECHOL DERIVATIVES AS HERBICIDES” (E I DU PONT DE NEMOURS AND COMPANY, priority 2014, published 2017).
# Experiments:
# Details in all cases: scale 0 to 100
# wild oat (Avenafatua) = experiment: Test D preemergence; type: in vivo, Avena fatua
# Description: (§1) Seeds of plant species selected from bluegrass (annual bluegrass, Poa annua), blackgrass (Alopecurus myosuroides), canarygrass (Phalaris minor), chickweed (common chickweed, Stellaria media), cutleaf geranium (Geranium dissectum), galium (catchweed bedstraw, Galium aparine), downy bromegrass (Bromus tectorum), field poppy (Papaver rhoeas), field violet (Viola arvensis), green foxtail (Setaria viridis), deadnettle (henbit deadnettle, Lamium amplexicaule), Italian ryegrass (Lolium multiflorum), kochia (Kochia scoparia), lambsquarters (Chenopodium album), oilseed rape (Brassica napus), pigweed (Amaranthus retroflexus), chamomile (scentless chamomile, Matricaria inodora), Russian thistle (Salsola kali), speedwell (bird's-eye speedwell, Veronica persica), spring barley (Hordeum vulgare), spring wheat (Triticum aestivum), wild buckwheat (Polygonum convolvulus), wild mustard (Sinapis arvensis), wild oat (Avenafatua), wild radish (Raphanus raphanistrum), windgrass (Apera spica-venti), winter barley (Hordeum vulgare), and winter wheat (Triticum aestivum) were planted into a silt loam soil and treated preemergence with test chemicals formulated in a non-phytotoxic solvent mixture which included a surfactant.
# (§2) At the same time, these species were planted in pots containing Redi-Earth® planting medium (Scotts Company, 14111 Scottslawn Road, Marysville, Ohio 43041) comprising spaghnum peat moss, vermiculite, wetting agent and starter nutrients and treated with postemergence applications of the test chemicals formulated in the same manner. Plants ranged in height from 2 to 18 cm (1- to 4-leaf stage). Treated plants and controls were maintained in a controlled growth environment for 14 to 21 days after which time all species were compared to controls and visually evaluated. Plant response ratings, summarized in Table D, are based on a scale of 0 to 100 where 0 is no effect and 100 is complete control. A dash (-) response means no test result.
# [1] = system: lambsquarters (Chenopodium album); experiment: Test D preemergence; type: in vivo
# Description: as §1, §2
# [2] = system: wild radish (Raphanus raphanistrum); experiment: Test D preemergence; type: in vivo
# Description: as §1, §2
# [3] = system: pigweed (Amaranthus retroflexus); experiment: Test D preemergence; type: in vivo
# Description: as §1, §2
# [4] = system: green foxtail (Setaria viridis); experiment: Test D preemergence; type: in vivo
# Description: as §1, §2
# [5] = system: blackgrass (Alopecurus myosuroides); experiment: Test D preemergence; type: in vivo
# Description: as §1, §2
# kochia (Kochia scoparia) = experiment: Test D preemergence; type: in vivo
# Description: as §1, §2
# [6] = system: spring wheat (Triticum aestivum); experiment: Test D preemergence; type: in vivo
# Description: as §1, §2
# [7] = system: Italian ryegrass (Lolium multiflorum); experiment: Test D preemergence; type: in vivo
# Description: as §1, §2
# [8] = system: lambsquarters (Chenopodium album); experiment: Test D postemergence; type: in vivo
# In short: (§3)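 Visual injury scored 0–100 (0 = no effect, 100 = complete control) against controls 14 to 21 days after treatment in a controlled growth environment. Compounds were applied in surfactant-containing non-phytotoxic solvent, preemergence onto silt loam-sown seeds or postemergence onto 1- to 4-leaf plants.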
# [9] = system: oilseed rape (Brassica napus); experiment: Test D postemergence; type: in vivo
# In short: as §3
# [10] = system: spring barley (Hordeum vulgare); experiment: Test D postemergence; type: in vivo
# In short: as §3
# [11] = system: windgrass (Apera spica-venti); experiment: Test D postemergence; type: in vivo
# In short: as §3
# [12] = system: field poppy (Papaver rhoeas); experiment: Test D postemergence; type: in vivo
# In short: as §3
# [13] = system: cutleaf geranium (Geranium dissectum); experiment: Test D preemergence; type: in vivo
# Description: as §1, §2
compound,measurement,setting,value
"Fc1cccc(Oc2ncc(C(F)(F)F)cn2)c1Oc1ncc(Cl)cn1 [Compound 42, 5-chloro-2-[2-fluoro-6-[[5-(trifluoromethyl)-2-pyrimidinyl]oxy]phenoxy]pyrimidine]","Plant response rating, Oat, Wild",wild oat (Avenafatua); 16 g ai/ha,5
same,"Plant response rating, Oat, Wild",wild oat (Avenafatua); 31 g ai/ha,5
same,"Plant response rating, Oat, Wild",wild oat (Avenafatua); 62 g ai/ha,50
same,"Plant response rating, Oat, Wild",wild oat (Avenafatua); 125 g ai/ha,95
same,"Plant response rating, Lambsquarters",[1]; 16 g ai/ha,85
same,"Plant response rating, Lambsquarters",[1]; 31 g ai/ha,100
same,"Plant response rating, Lambsquarters",[1]; 62 g ai/ha,100
same,"Plant response rating, Lambsquarters",[1]; 125 g ai/ha,100
same,"Plant response rating, Radish, Wild",[2]; 16 g ai/ha,25
same,"Plant response rating, Radish, Wild",[2]; 62 g ai/ha,85
same,"Plant response rating, Radish, Wild",[2]; 125 g ai/ha,100
same,"Plant response rating, Pigweed",[3]; 16 g ai/ha,100
same,"Plant response rating, Pigweed",[3]; 31 g ai/ha,100
same,"Plant response rating, Pigweed",[3]; 62 g ai/ha,100
same,"Plant response rating, Pigweed",[3]; 125 g ai/ha,100
same,"Plant response rating, Foxtail, Green",[4]; 16 g ai/ha,10
same,"Plant response rating, Foxtail, Green",[4]; 31 g ai/ha,60
same,"Plant response rating, Foxtail, Green",[4]; 62 g ai/ha,100
same,"Plant response rating, Foxtail, Green",[4]; 125 g ai/ha,100
same,"Plant response rating, Blackgrass",[5]; 16 g ai/ha,0
same,"Plant response rating, Blackgrass",[5]; 31 g ai/ha,10
same,"Plant response rating, Blackgrass",[5]; 62 g ai/ha,35
same,"Plant response rating, Blackgrass",[5]; 125 g ai/ha,75
same,"Plant response rating, Kochia",kochia (Kochia scoparia); 16 g ai/ha,35
same,"Plant response rating, Kochia",kochia (Kochia scoparia); 31 g ai/ha,65
same,"Plant response rating, Kochia",kochia (Kochia scoparia); 62 g ai/ha,100
same,"Plant response rating, Kochia",kochia (Kochia scoparia); 125 g ai/ha,100
same,"Plant response rating, Wheat, Spring",[6]; 16 g ai/ha,0
same,"Plant response rating, Wheat, Spring",[6]; 31 g ai/ha,0
same,"Plant response rating, Wheat, Spring",[6]; 62 g ai/ha,15
same,"Plant response rating, Wheat, Spring",[6]; 125 g ai/ha,65
same,"Plant response rating, Ryegrass, Italian",[7]; 16 g ai/ha,0
same,"Plant response rating, Ryegrass, Italian",[7]; 31 g ai/ha,0
same,"Plant response rating, Ryegrass, Italian",[7]; 62 g ai/ha,35
same,"Plant response rating, Ryegrass, Italian",[7]; 125 g ai/ha,70
same,"Plant response rating, Lambsquarters",[8]; 16 g ai/ha,70
same,"Plant response rating, Lambsquarters",[8]; 31 g ai/ha,85
same,"Plant response rating, Lambsquarters",[8]; 62 g ai/ha,90
same,"Plant response rating, Lambsquarters",[8]; 125 g ai/ha,95
same,"Plant response rating, Oilseed Rape",[9]; 16 g ai/ha,75
same,"Plant response rating, Oilseed Rape",[9]; 31 g ai/ha,75
same,"Plant response rating, Oilseed Rape",[9]; 62 g ai/ha,85
same,"Plant response rating, Oilseed Rape",[9]; 125 g ai/ha,95
same,"Plant response rating, Barley, Spring",[10]; 16 g ai/ha,10
same,"Plant response rating, Barley, Spring",[10]; 31 g ai/ha,15
same,"Plant response rating, Barley, Spring",[10]; 62 g ai/ha,20
same,"Plant response rating, Barley, Spring",[10]; 125 g ai/ha,30
same,"Plant response rating, Windgrass",[11]; 16 g ai/ha,25
same,"Plant response rating, Windgrass",[11]; 31 g ai/ha,40
same,"Plant response rating, Windgrass",[11]; 62 g ai/ha,50
same,"Plant response rating, Windgrass",[11]; 125 g ai/ha,60
same,"Plant response rating, Field Poppy",[12]; 16 g ai/ha,55
same,"Plant response rating, Field Poppy",[12]; 31 g ai/ha,75
same,"Plant response rating, Field Poppy",[12]; 62 g ai/ha,100
same,"Plant response rating, Field Poppy",[12]; 125 g ai/ha,100
Fc1cnc(Oc2c(Br)cccc2Oc2ncc(Cl)cn2)nc1 [Compound 22],"Plant response rating, Oat, Wild",wild oat (Avenafatua); 16 g ai/ha,5
same,"Plant response rating, Oat, Wild",wild oat (Avenafatua); 31 g ai/ha,10
same,"Plant response rating, Oat, Wild",wild oat (Avenafatua); 62 g ai/ha,20
same,"Plant response rating, Oat, Wild",wild oat (Avenafatua); 125 g ai/ha,25
same,"Plant response rating, Lambsquarters",[1]; 16 g ai/ha,20
same,"Plant response rating, Lambsquarters",[1]; 31 g ai/ha,85
same,"Plant response rating, Lambsquarters",[1]; 62 g ai/ha,100
same,"Plant response rating, Lambsquarters",[1]; 125 g ai/ha,100
same,"Plant response rating, Radish, Wild",[2]; 16 g ai/ha,45
same,"Plant response rating, Radish, Wild",[2]; 31 g ai/ha,55
same,"Plant response rating, Radish, Wild",[2]; 62 g ai/ha,70
same,"Plant response rating, Radish, Wild",[2]; 125 g ai/ha,80
same,"Plant response rating, Pigweed",[3]; 16 g ai/ha,75
same,"Plant response rating, Pigweed",[3]; 31 g ai/ha,70
same,"Plant response rating, Pigweed",[3]; 62 g ai/ha,100
same,"Plant response rating, Pigweed",[3]; 125 g ai/ha,100
same,"Plant response rating, Geranium, Cutleaf",[13]; 16 g ai/ha,25
same,"Plant response rating, Geranium, Cutleaf",[13]; 31 g ai/ha,35
same,"Plant response rating, Geranium, Cutleaf",[13]; 62 g ai/ha,70
same,"Plant response rating, Geranium, Cutleaf",[13]; 125 g ai/ha,100
same,"Plant response rating, Foxtail, Green",[4]; 16 g ai/ha,15
same,"Plant response rating, Foxtail, Green",[4]; 31 g ai/ha,35
same,"Plant response rating, Foxtail, Green",[4]; 62 g ai/ha,40
same,"Plant response rating, Foxtail, Green",[4]; 125 g ai/ha,40
same,"Plant response rating, Blackgrass",[5]; 16 g ai/ha,5
same,"Plant response rating, Blackgrass",[5]; 31 g ai/ha,20
same,"Plant response rating, Blackgrass",[5]; 62 g ai/ha,35
same,"Plant response rating, Blackgrass",[5]; 125 g ai/ha,55
same,"Plant response rating, Kochia",kochia (Kochia scoparia); 16 g ai/ha,0
same,"Plant response rating, Kochia",kochia (Kochia scoparia); 31 g ai/ha,10
same,"Plant response rating, Kochia",kochia (Kochia scoparia); 62 g ai/ha,20
same,"Plant response rating, Kochia",kochia (Kochia scoparia); 125 g ai/ha,70
same,"Plant response rating, Wheat, Spring",[6]; 16 g ai/ha,0
same,"Plant response rating, Wheat, Spring",[6]; 31 g ai/ha,5
same,"Plant response rating, Wheat, Spring",[6]; 62 g ai/ha,15
same,"Plant response rating, Wheat, Spring",[6]; 125 g ai/ha,35
same,"Plant response rating, Ryegrass, Italian",[7]; 16 g ai/ha,10
same,"Plant response rating, Ryegrass, Italian",[7]; 31 g ai/ha,15
same,"Plant response rating, Ryegrass, Italian",[7]; 62 g ai/ha,25
same,"Plant response rating, Ryegrass, Italian",[7]; 125 g ai/ha,65
same,"Plant response rating, Lambsquarters",[8]; 16 g ai/ha,50
same,"Plant response rating, Lambsquarters",[8]; 31 g ai/ha,40
same,"Plant response rating, Lambsquarters",[8]; 62 g ai/ha,75
same,"Plant response rating, Lambsquarters",[8]; 125 g ai/ha,70
same,"Plant response rating, Oilseed Rape",[9]; 16 g ai/ha,15
same,"Plant response rating, Oilseed Rape",[9]; 31 g ai/ha,45
same,"Plant response rating, Oilseed Rape",[9]; 62 g ai/ha,70
same,"Plant response rating, Oilseed Rape",[9]; 125 g ai/ha,80
same,"Plant response rating, Barley, Spring",[10]; 16 g ai/ha,5
same,"Plant response rating, Barley, Spring",[10]; 31 g ai/ha,10
same,"Plant response rating, Barley, Spring",[10]; 62 g ai/ha,15
same,"Plant response rating, Barley, Spring",[10]; 125 g ai/ha,20
same,"Plant response rating, Windgrass",[11]; 16 g ai/ha,5
same,"Plant response rating, Windgrass",[11]; 31 g ai/ha,10
same,"Plant response rating, Windgrass",[11]; 62 g ai/ha,25
same,"Plant response rating, Windgrass",[11]; 125 g ai/ha,35
same,"Plant response rating, Field Poppy",[12]; 16 g ai/ha,55
same,"Plant response rating, Field Poppy",[12]; 31 g ai/ha,65
same,"Plant response rating, Field Poppy",[12]; 62 g ai/ha,70
same,"Plant response rating, Field Poppy",[12]; 125 g ai/ha,70
